Entries after “also recorded” stand apart in the source; their conditions may differ. Counter-ions that a name gives are not always drawn.
Legend:
[1] = Thermodynamic stability of the crystal forms at room temperature; format: physicochemical
[2] = Heat stability of Form-III crystal form (heated in oil bath, examined by XRPD); format: physicochemical; conditions: 6 hours, form-I and Form-II below the detection level
Excerpt: Pure Form-III crystal form (1 gm) prepared by the present process was placed in a boiling tube and heated gradually in oil bath. Then the substance was examined by XRPD.

[3] = Stability of Form-III crystal form under accelerated stress conditions in bulk and formulated capsule; format: physicochemical
Excerpt: Table 5 - Stability of Form-III crystal form in bulk and formulated capsule

[4] = tested on: K562 luciferase expressing cells; assay: Leukemic survival study, K562 luciferase expressing cells implanted intraperitoneally; format: in vivo, nude mice
Excerpt: K562 luciferase expressing cells were implanted intraperitoneally into nude mice; the mice were scanned using the xenogeny IVIS image station after ip injections of luciferin does determine implantations. Drug treatment was started as in previous studies day 15 after implantation. The animals were given treatment till day 42, after which drug treatment was stopped and survival of the animals determined as per the animal care regulations. […] Drug treatment was withdrawn on day 42 post implantation and survival of animals determined.

[5] = tested on: K562 luc human leukemia cells; assay: Low dose oral treatment of nude mice implanted with K562 luc cells (luciferase expression); format: in vivo; conditions: oral administration
Protocol: Nude mice (nu/nu) were implanted with K562 cells (1x106) normal/luc via tail vein. Five mice were used per group and divided into 24 groups + 2 control. All groups were implanted with K562 normal/luc cells. Of the 24 groups, 12 were used for luciferase studies whereas the other 12 were used for blood smear count studies.
Drugs were administered by oral gavage (2% gum acacia and 2% SLS in an aqueous suspension).

[6] = tested on: 4910 human glioma xenograft cells; assay: Glioma radiation study, intracranially implanted 4910 cells; format: in vivo, Nude mice; conditions: terminated at day 40
Protocol: Nude mice were intracranially implanted with 4910 human glioma xenograft cells (1x10^6 cells). Ten days after implantation mice were treated with AN019, AN024 or temozolomide with or without radiation (5Gy/week). The experiment was terminated at day 40 post implantation.

Structure (SMILES): Cc1ccc(NC(=O)c2cc(C(F)(F)F)cc(C(F)(F)F)c2)cc1Nc1nccc(-c2cccnc2)n1 [Form-I, (3,5-bis trifluoromethyl)-N-[4-methyl-3-(4-pyridin-3yl-pyrimidin-2ylamino)-phenyl]-benzamide]
- stability of crystal form at room temperature [1]: metastable at room temperature

Structure (SMILES): Cc1ccc(NC(=O)c2cc(C(F)(F)F)cc(C(F)(F)F)c2)cc1Nc1nccc(-c2cccnc2)n1 [Form-II, (3,5-bis trifluoromethyl)-N-[4-methyl-3-(4-pyridin-3yl-pyrimidin-2ylamino)-phenyl]-benzamide]
- stability of crystal form at room temperature [1]: metastable at room temperature

Structure (SMILES): Cc1ccc(NC(=O)c2cc(C(F)(F)F)cc(C(F)(F)F)c2)cc1Nc1nccc(-c2cccnc2)n1 [Form-III, (3,5-bis trifluoromethyl)-N-[4-methyl-3-(4-pyridin-3yl-pyrimidin-2ylamino)-phenyl]-benzamide]
- stability of crystal form at room temperature [1]: thermodynamically stable form at room temperature
- Polymorph form detected after heating ([2]; 110°C): Form-III
- Polymorph form detected after heating ([2]; 120°C): Form-III
- Polymorph form detected after heating ([2]; 130°C): non-metastable and stable when heated at 130 °C for 6 hours; also recorded: stable to heat even at 130 °C for 6 hours; also recorded: Form-III
- Polymorph content of bulk compound of formula I, Polymorph form detected ([3]; 0 Month at 40±2°C / 75 ±5% RH): Form-III
- Polymorph content of bulk compound of formula I, Polymorph form detected ([3]; 1 Month at 40±2°C / 75 ±5% RH): Form-III
- Polymorph content of bulk compound of formula I, Polymorph form detected ([3]; 2 Months at 40±2°C / 75 ±5% RH): Form-III
- Polymorph content of bulk compound of formula I, Polymorph form detected ([3]; 3 Months at 40±2°C / 75 ±5% RH): Form-III
- Polymorph content of bulk compound of formula I, Polymorph form detected ([3]; 6 Months at 40±2°C / 75 ±5% RH): Form-III
- Polymorph content of Formula I in formulated capsule, Polymorph form detected ([3]; 0 Month at 40±2°C / 75 ±5% RH): Form-III
- Polymorph content of Formula I in formulated capsule, Polymorph form detected ([3]; 1 Month at 40±2°C / 75 ±5% RH): Form-III
- Polymorph content of Formula I in formulated capsule, Polymorph form detected ([3]; 2 Months at 40±2°C / 75 ±5% RH): Form-III
- Polymorph content of Formula I in formulated capsule, Polymorph form detected ([3]; 3 Months at 40±2°C / 75 ±5% RH): Form-III
- Polymorph content of Formula I in formulated capsule, Polymorph form detected ([3]; 6 Months at 40±2°C / 75 ±5% RH): Form-III

Structure (SMILES): Cc1ccc(NC(=O)c2ccc(CN3CCN(C)CC3)cc2)cc1Nc1nccc(-c2cccnc2)n1 [Imatinib, Imatinib mesylate, reference compound]
- leukemic symptoms after treatment withdrawal ([4]; drug treatment withdrawn on day 42): showed reoccurrences of leukemic symptoms after treatment withdrawal
- Blast cell count from blood smears after withdrawal of drug treatment ([4]; drug treatment withdrawn on day 42 (Fig. 21)): found to be ineffective
- mortality ([4]; treatment from day 15 till day 42, then withdrawn, AN024 death determined to be other than leukemia): showed mortality on day 55, 56, 57 and 58
- luciferase expression ([5]; 10mg/kg): did show a retardation of luciferase expression
- luciferase expression ([5]; 20mg/kg): did show a retardation of luciferase expression

Structure (SMILES): Cn1nnc2c(C(N)=O)ncn2c1=O [Temozolomide, reference compound]
- animals cured / no observable intracranial tumor ([6]; with radiation (5Gy/week)): 2 of 10 animals
- animals cured / complete absence of intracranial tumours ([6]; without radiation, treatment from ten days after implantation): 3 of 10 animals

Reference: EP2265599B1, “CRYSTAL FORM OF PHENYLAMINOPYRIMIDINE DERIVATIVE” (Natco Pharma Limited, priority 2008, dated 2009)
